Results as given in PubChem BioAssay AID2060513 (Molecular Pharmacology Branch, DTP, NCI, 2025).
pIC50: −log10 of the molar value.

Tested on: 299254-011-R-J1-PDC complex spheroids viability
Assay: Anticancer human tumor 299254-011-R-J1-PDC patient-derived melanoma cell line growth inhibition [GQUAD]
Settings: for pIC50: curve of first compound; for viability, T/C: stronger effect = lower value
Method in brief: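 Tumor cells were grown as complex spheroids with HUVEC endothelial cells and mesenchymal stem cells as stroma. G-quadruplex stabilizers were combined with targeted agents over half-log dilutions from near the clinical Cmax, or from 10 microM.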

[1] = second compound 0.0316 µM, first compound 0.000999 µM
[2] = second compound 0.0316 µM, first compound 0.00316 µM
[3] = second compound 0.0316 µM, first compound 0.00999 µM
[4] = second compound 0.0316 µM, first compound 0.0316 µM
[5] = second compound 0.0316 µM, first compound 0.0999 µM
[6] = second compound 0.0316 µM, first compound 0.316 µM
[7] = second compound 0.1 µM, first compound 0.000999 µM
[8] = second compound 0.1 µM, first compound 0.00316 µM
[9] = second compound 0.1 µM, first compound 0.00999 µM
[10] = second compound 0.1 µM, first compound 0.0316 µM
[11] = second compound 0.1 µM, first compound 0.0999 µM
[12] = second compound 0.1 µM, first compound 0.316 µM
[13] = second compound 0.316 µM, first compound 0.000999 µM
[14] = second compound 0.316 µM, first compound 0.00316 µM
[15] = second compound 0.316 µM, first compound 0.00999 µM
[16] = second compound 0.316 µM, first compound 0.0316 µM
[17] = second compound 0.316 µM, first compound 0.0999 µM
[18] = second compound 0.316 µM, first compound 0.316 µM
[19] = second compound 1 µM, first compound 0.000999 µM
[20] = second compound 1 µM, first compound 0.00316 µM
[21] = second compound 1 µM, first compound 0.00999 µM
[22] = second compound 1 µM, first compound 0.0316 µM
[23] = second compound 1 µM, first compound 0.0999 µM
[24] = second compound 1 µM, first compound 0.316 µM
[25] = second compound 3.16 µM, first compound 0.000999 µM
[26] = second compound 3.16 µM, first compound 0.00316 µM
[27] = second compound 3.16 µM, first compound 0.00999 µM
[28] = second compound 3.16 µM, first compound 0.0316 µM
[29] = second compound 3.16 µM, first compound 0.0999 µM
[30] = second compound 3.16 µM, first compound 0.316 µM
[31] = second compound 10 µM, first compound 0.000999 µM
[32] = second compound 10 µM, first compound 0.00316 µM
[33] = second compound 10 µM, first compound 0.00999 µM
[34] = second compound 10 µM, first compound 0.0316 µM
[35] = second compound 10 µM, first compound 0.0999 µM
[36] = second compound 10 µM, first compound 0.316 µM
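Note: spheroids exposed to the agents for seven days before readout.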
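Throughout, for viability, T/C: percent viability relative to DMSO vehicle control wells = 100%.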

Compound: Cn1ncnc1[C@H]1c2n[nH]c(=O)c3cc(F)cc(c23)N[C@@H]1c1ccc(F)cc1 + Cc1[nH]c2ccc(F)cc2c1-c1nc2c3cccnc3c3ncccc3c2[nH]1
- pIC50 (second compound 0.0316 µM): < 6.50
- pIC50 (second compound 0.1 µM): < 6.50
- pIC50 (second compound 0.316 µM): < 6.50
- pIC50 (second compound 1 µM): < 6.50
- pIC50 (second compound 3.16 µM): < 6.50
- pIC50 (second compound 10 µM): < 6.50
- viability, T/C [1]: 93.7%
- viability, T/C [2]: 105%
- viability, T/C [3]: 117%
- viability, T/C [4]: 90.2%
- viability, T/C [5]: 88.3%
- viability, T/C [6]: 101%
- viability, T/C [7]: 101%
- viability, T/C [8]: 103%
- viability, T/C [9]: 88.1%
- viability, T/C [10]: 92.7%
- viability, T/C [11]: 118%
- viability, T/C [12]: 96.2%
- viability, T/C [13]: 92.8%
- viability, T/C [14]: 108%
- viability, T/C [15]: 113%
- viability, T/C [16]: 94%
- viability, T/C [17]: 98.2%
- viability, T/C [18]: 105%
- viability, T/C [19]: 86.7%
- viability, T/C [20]: 105%
- viability, T/C [21]: 87.1%
- viability, T/C [22]: 112%
- viability, T/C [23]: 112%
- viability, T/C [24]: 102%
- viability, T/C [25]: 95.3%
- viability, T/C [26]: 88.2%
- viability, T/C [27]: 96.3%
- viability, T/C [28]: 84.6%
- viability, T/C [29]: 88.6%
- viability, T/C [30]: 118%
- viability, T/C [31]: 96.7%
- viability, T/C [32]: 111%
- viability, T/C [33]: 84%
- viability, T/C [34]: 95.7%
- viability, T/C [35]: 108%
- viability, T/C [36]: 99.5%

Compound: Cn1ncnc1[C@H]1c2n[nH]c(=O)c3cc(F)cc(c23)N[C@@H]1c1ccc(F)cc1 + Cc1cnc(CNC(=O)c2c(=O)c3ccc(N4CCCN(C)CC4)nc3n3c2sc2ccccc23)cn1
- pIC50 (second compound 0.0316 µM): < 6.50
- pIC50 (second compound 0.1 µM): < 6.50
- pIC50 (second compound 0.316 µM): < 6.50
- pIC50 (second compound 1 µM): < 6.50
- pIC50 (second compound 3.16 µM): < 6.50
- pIC50 (second compound 10 µM): < 6.50
- viability, T/C [1]: 94.1%
- viability, T/C [2]: 116%
- viability, T/C [3]: 125%
- viability, T/C [4]: 87.5%
- viability, T/C [5]: 108%
- viability, T/C [6]: 105%
- viability, T/C [7]: 97.2%
- viability, T/C [8]: 96.2%
- viability, T/C [9]: 91.4%
- viability, T/C [10]: 122%
- viability, T/C [11]: 121%
- viability, T/C [12]: 90.3%
- viability, T/C [13]: 93.4%
- viability, T/C [14]: 91.2%
- viability, T/C [15]: 88.3%
- viability, T/C [16]: 99.1%
- viability, T/C [17]: 111%
- viability, T/C [18]: 105%
- viability, T/C [19]: 90.9%
- viability, T/C [20]: 96.9%
- viability, T/C [21]: 84.2%
- viability, T/C [22]: 104%
- viability, T/C [23]: 83.2%
- viability, T/C [24]: 94.1%
- viability, T/C [25]: 85.3%
- viability, T/C [26]: 82.3%
- viability, T/C [27]: 68.8%
- viability, T/C [28]: 91.2%
- viability, T/C [29]: 74.2%
- viability, T/C [30]: 92.1%
- viability, T/C [31]: 71.7%
- viability, T/C [32]: 60.6%
- viability, T/C [33]: 105%
- viability, T/C [34]: 61.1%
- viability, T/C [35]: 87.4%
- viability, T/C [36]: 61.8%

Compound: O=C(NO)c1cnc(N2CCN(S(=O)(=O)c3ccc4ccccc4c3)CC2)nc1 + CN(C)c1ccc(Nc2c3ccc(NC(=O)CCN4CCCC4)cc3nc3cc(NC(=O)CCN4CCCC4)ccc23)cc1
- pIC50 (second compound 0.0316 µM): 6.39
- pIC50 (second compound 0.1 µM): 6.35
- pIC50 (second compound 0.316 µM): 6.38
- pIC50 (second compound 1 µM): 6.28
- pIC50 (second compound 3.16 µM): 6.29
- pIC50 (second compound 10 µM): 6.35
- viability, T/C [4]: 111%
- viability, T/C (second compound 0.0316 µM, first compound 0.1 µM): 90%
- viability, T/C [6]: 65.2%
- viability, T/C (second compound 0.0316 µM, first compound 1 µM): 3.37%
- viability, T/C (second compound 0.0316 µM, first compound 3.16 µM): 0.26%
- viability, T/C (second compound 0.0316 µM, first compound 10 µM): 0.29%
- viability, T/C [10]: 103%
- viability, T/C (second compound 0.1 µM, first compound 0.1 µM): 91.5%
- viability, T/C [12]: 69.2%
- viability, T/C (second compound 0.1 µM, first compound 1 µM): 5.67%
- viability, T/C (second compound 0.1 µM, first compound 3.16 µM): 0.22%
- viability, T/C (second compound 0.1 µM, first compound 10 µM): 0.27%
- viability, T/C [16]: 109%
- viability, T/C (second compound 0.316 µM, first compound 0.1 µM): 92.7%
- viability, T/C [18]: 65%
- viability, T/C (second compound 0.316 µM, first compound 1 µM): 3.85%
- viability, T/C (second compound 0.316 µM, first compound 3.16 µM): 0.2%
- viability, T/C (second compound 0.316 µM, first compound 10 µM): 0.27%
- viability, T/C [22]: 112%
- viability, T/C (second compound 1 µM, first compound 0.1 µM): 93.2%
- viability, T/C [24]: 85%
- viability, T/C (second compound 1 µM, first compound 1 µM): 3.59%
- viability, T/C (second compound 1 µM, first compound 3.16 µM): 0.21%
- viability, T/C (second compound 1 µM, first compound 10 µM): 0.25%
- viability, T/C [28]: 100%
- viability, T/C (second compound 3.16 µM, first compound 0.1 µM): 90.1%
- viability, T/C [30]: 82.3%
- viability, T/C (second compound 3.16 µM, first compound 1 µM): 5.14%
- viability, T/C (second compound 3.16 µM, first compound 3.16 µM): 0.2%
- viability, T/C (second compound 3.16 µM, first compound 10 µM): 0.24%
- viability, T/C [34]: 115%
- viability, T/C (second compound 10 µM, first compound 0.1 µM): 85.8%
- viability, T/C [36]: 71%
- viability, T/C (second compound 10 µM, first compound 1 µM): 3.61%
- viability, T/C (second compound 10 µM, first compound 3.16 µM): 0.22%
- viability, T/C (second compound 10 µM, first compound 10 µM): 0.26%
